Source: ChEMBL document CHEMBL1157539, “Thousands of chemical starting points for antimalarial lead identification” (Nature, 2010)

test system: Plasmodium falciparum; assay: GSK_TCMDC: Inhibition of Plasmodium falciparum 3D7 in whole erythrocytes, using parasite LDH activity as an index of growth.; format: functional, organism-based; conditions: Plasmodium falciparum, 3D7

Row | Compound | XC50 [nM]
1 | OC(CNCc1ccccc1OCc1ccccc1)c1cccc(Cl)c1 (configuration not stated) | 219
2 | NCCCNc1nc(Nc2ccc(C(F)(F)F)cc2F)c2c(=O)[nH]ccc2n1 | 1050
3 | CC(=O)Oc1c(C2CCN(CCCCNC(=O)c3ccc(-c4ccc(C#N)cc4)cc3)CC2)ccc2c1CCCC2 | 1130
4 | CC(=O)c1ccc(O)c(CC(O)CO)c1 (configuration not stated) | 723
5 | O=C(CCC(=O)c1ccc2c3c(cccc13)CC2)NC1CCC(CN2CCC(c3c[nH]c4ccccc34)CC2)CC1 (configuration not stated) | 918
6 | O=C(OCC1CCN(Cc2ccccc2)C1)c1ccc(Cl)cc1 (configuration not stated) | 680
7 | O=C(/C=C/c1ccc(Cl)c(Cl)c1)NCCCCCN1CCCN(C(=O)Nc2cc(Cl)nc(Cl)c2)CC1 | 786
8 | CS(=O)(=O)Nc1ccc(OCCCCCCOc2ccc(NS(C)(=O)=O)cc2)cc1 | 493
9 | CNS(=O)(=O)c1ccc(NC(=O)c2cc(-c3cccnc3)nc3ccc(Br)cc23)cc1 | 907
10 | O=C(Nc1ccc2c(c1)CCN2C1CCN(Cc2ccc(O)cc2)C1)c1ccco1 (configuration not stated) | 897
11 | Cc1cccc2nc(-c3ccc(-c4cccc(NC(=O)Nc5ccc6c(c5)OCO6)c4)cc3)[nH]c12 | 745
12 | Fc1ccc(-c2cncc(-c3ccc(F)cc3)n2)cc1 | 639
13 | O=C(Cc1ccccc1)NC1CCN(c2ccnc3cc(Cl)ccc23)C1 (configuration not stated) | 805
14 | COC(=O)[C@@H](NC(=O)[C@H](Cc1ccc(OC)c(OC)c1)Nc1ccc(C#N)c2ccccc12)c1ccc(O)cc1 | 751
15 | CCCCCN1C(=O)C(c2ccccc2)(c2ccccc2)N=C1N | 793
16 | O=C(Nc1ccc(Br)cc1)N(CCN1CCOCC1)CC(O)COc1ccc(Cl)c(F)c1 (configuration not stated) | 1040
17 | CN1CCC(c2cc3c(cc2Br)CCN3C(=O)Nc2ccc(-c3ccncc3)c(Cl)c2)CC1 | 1010
18 | CC1CN(Cc2ccccc2)CCN1c1ccc(NC(=O)c2cccs2)cc1 (configuration not stated) | 276
19 | O=S(=O)(Nc1ccc(CCN2CCC(N3CCCCC3)CC2)cc1)c1cccc(C(F)(F)F)c1 | 702
20 | CCCCNC(=O)c1[nH]c2c(NC(=O)COc3ccccc3)cccc2c1-c1cccc(NC(=O)C(N)CO)c1 (configuration not stated) | 852
21 | O=C(C=Cc1ccc(Br)cc1)N1CCC(CCN2CCC(c3c[nH]c4ccccc34)CC2)CC1 | 919
22 | COc1ccc2c(c1)nc(CNC(=N)N)n2Cc1ccc(Cl)cc1 | 359
23 | CC(=O)Nc1ccc(CN(Cc2ccc(OC(C)(C)C)cc2)Cc2ccc3c(c2)OCCO3)cc1 | 927
24 | CCCCCN1CCCCC(NS(=O)(=O)c2ccc(C(=O)Nc3ccc(C(F)(F)F)cc3)cc2)C1 (configuration not stated) | 768
25 | O=[N+]([O-])c1ccccc1C=NN=c1cc[nH]c2ccccc12 | 863

Row | Compound | XC50 [nM]
26 | CCCc1cc(Cc2cnc(N)nc2N)cc(CCC)c1OCCCC(=O)OCC | 51.8
27 | N#Cc1ccc(CN2CCCN(Cc3cccc(NC(=O)c4cc5ccccc5s4)c3)CC2)cc1 | 907
28 | COc1ccc2nc3cc(Cl)ccc3c(NCCO)c2c1 | 800
29 | CC(C)CNCc1ccc(-c2ccc(CN(CCCN3CCN(C)CC3)C(=O)/C=C/c3ccccc3)cc2)cc1 | 917
30 | COc1cc2nc(C)nc(Nc3ccc(Oc4ccccc4)cc3)c2cc1OC | 720
31 | CNC(=O)c1cnc(Nc2ccc3[nH]c(=O)[nH]c3c2)nc1Nc1cccc(OC(C)C)c1 | 926
32 | CC(=O)Nc1ccc(CN(Cc2ccc(C)cc2)Cc2cccc(Oc3ccccc3)c2)cc1 | 1050
33 | COc1ccc2nccc([C@@H](O)CN3CCC(NC(=O)C(=Cc4ccc(C#N)cc4)c4ccc(-c5ccccc5)cc4)CC3)c2c1 | 739
34 | N=C(N)Nc1ccc(OCCCCCOc2ccc(NC(=N)N)c(Cl)c2)cc1Cl | 857
35 | O=C(/C=C/c1ccc(Cl)c(Cl)c1)NCCCCCN1CCC(CCNC(=O)/C=C/c2ccc(Cl)c(Cl)c2)CC1 | 561
36 | COc1cc2c(c(Cl)c1OC)CCN(Cc1ccccc1)CC2c1ccc(NC(=O)C(F)(F)F)cc1 (configuration not stated) | 924
37 | CCCc1c(C(=O)Nc2ccc3c(c2)CCN(C2CCC2)CC3)cnn1-c1ccc(Cl)cc1 | 858
38 | CN1CCCC1CCOc1ccc2c(c1)N(C(=O)Nc1cc(Br)cc(C(F)(F)F)c1)CC2 (configuration not stated) | 247
39 | O=C(NCCCCN1CCC(c2cccc3ccccc23)CC1)c1ccc(-c2ccc(C(F)(F)F)cn2)cc1 | 867
40 | N#Cc1ccc(N/C(=N\c2ccccc2Br)N(C2CCCCC2)C2CCCCC2)c(O)c1 | 785
41 | CN1CCCC1CCNc1ncc2c(-c3ccc(NC(=O)Nc4cc(C(F)(F)F)ccc4F)cc3)nn(C)c2n1 (configuration not stated) | 344
42 | Cc1ccc(C2(CN3CCC(NC(=O)c4n[nH]cc4Cl)CC3)CCCCC2)cc1 | 321
43 | Cc1cc(Nc2ccnc(-c3ccc(Cl)cc3)n2)ccn1 | 1040
44 | COc1cc(C=NNc2cc(C)nc3c(OC)cccc23)cc(OC)c1OC | 887
45 | COc1ccc(-c2cnc3ccc(NCc4ccc(S(N)(=O)=O)cc4)nn23)cn1 | 867
46 | COc1ccc(NC(=O)Nc2ccc(-c3ccncc3)c(Cl)c2)cc1N1CCN(C)CC1 | 755
47 | COc1ccc(CNC2CCN(C)CC2)cc1-c1ccc(S(=O)(=O)NCCc2ccccn2)cc1 | 1090
48 | CO/C(=C\C=C\c1cc2cc(Cl)c(Cl)cc2[nH]1)C(=O)NCCCNC12CC3CC(CC(C3)C1)C2 | 730
49 | NC(=O)c1cccc(C(=O)Nc2ccc(-c3cccc(-c4nc5cc(F)ccc5[nH]4)c3)cc2)c1 | 865
50 | Cc1noc(C)c1-c1cccc(CNCc2cccc(-c3ccc(-c4nc5cccc(C)c5[nH]4)s3)c2)c1 | 211

Row | Compound | XC50 [nM]
51 | CCCC(CC)n1ccc2c3c(N)nc(N)nc3ccc21 (configuration not stated) | 5.92
52 | CN(C(=O)C1(c2ccc(Cl)cc2)CC1)C1CCN(CCCCCNC(=O)/C=C/c2ccc(Cl)c(Cl)c2)CC1 | 769
53 | Cc1nc(NC(=N)N)nc2cc3c(cc12)CCC3 | 916
54 | CCN(CCO)CCc1cccc(Nc2nccc(-c3c(-c4ccc(NC(=O)N(CC)CC)cc4)nn4ccccc34)n2)c1 | 1110
55 | COc1cccc(C(=O)NC(NC(=S)Nc2ccc(OC)cc2[N+](=O)[O-])C(Cl)(Cl)Cl)c1 (configuration not stated) | 758
56 | COc1cc2c(cc1N(C(C)C)S(=O)(=O)c1sc3ccc(Cl)cc3c1C)CCNCC2 | 1050
57 | Oc1ccc2nc(N3CCNCC3)nc(NCCCc3ccccc3)c2c1 | 1370
58 | CN1CCN(CCCN(Cc2ccc(-c3cccc(CNC4CCCC4)c3)cc2)C(=O)/C=C/c2ccccc2)CC1 | 1330
59 | CC(C)(C)c1ccc2[nH]c(-c3ccc(/C=C/C(=O)NCc4ccc(Cl)c(Cl)c4)cc3)nc2c1 | 35.4
60 | CCN(CC)CCNC(=O)c1ccc(NC(=O)c2ccc(-c3cc(NC(=O)CC4CCCC4)ccc3C)cc2)cc1 | 564
61 | Cc1cccc2nc(-c3cccc(-c4ccc(CNCc5ccc(S(C)(=O)=O)cc5)cc4)c3)[nH]c12 | 184
62 | Cc1cccc2nc(-c3ccc(-c4ccc(CNCc5cnn(-c6ccccc6)n5)cc4)cc3)[nH]c12 | 428
63 | CCC(C)(C)c1ccc(Oc2ccc(NC(=O)Nc3ccc(Cl)c(Cl)c3)cc2)cc1 | 704
64 | COCc1ccc(CN2CCC(C(=O)Nc3ccc(-c4nc5ccccc5[nH]4)cc3)CC2)o1 | 853
65 | O=C(Cc1ccc(Cl)cc1)NC1CCN(c2ccnc3cc(Cl)ccc23)C1 (configuration not stated) | 226
66 | CC1CC(NCCCNc2cc(=O)c3ccccc3[nH]2)c2cc(Cl)c(Cl)c(Cl)c21 (configuration not stated) | 724
67 | O=S(=O)(Nc1cccc(CCN2CCC(N3CCCCC3)CC2)c1)c1ccc(-c2ccccc2)cc1 | 1120
68 | COc1ccc(-c2nc(NC(=O)CSc3ccccc3)sc2C)cc1 | 764
69 | c1cc(-c2ccc(CNCCCN3CCOCC3)cc2)cc(-c2nc3ccccc3[nH]2)c1 | 207
70 | CCCCN(C)CC#Cc1ccc(-c2ccc3[nH]c(C)c(Br)c(=O)c3c2)cn1 | 647
71 | Clc1ccc(-c2cnc3ccc(NCc4ccncc4)nn23)cc1 | 891
72 | CN1CCc2ccc(NC(=O)Nc3cccc(C(=O)c4ccccc4)c3)cc2C1 | 917
73 | N#CC1(c2ccccc2)CCN(c2nc(NCCCN3CCCC3=O)nc(N3CCCC4CCCCC43)n2)CC1 (configuration not stated) | 864
74 | CCCN1CCN(CCCNc2c3ccccc3nc3ccccc23)CC1 | 547
75 | C=CCC(CC=C)N1C(=O)C(c2ccccc2)(c2ccccc2)N=C1N | 659

Row | Compound | XC50 [nM]
76 | O=C(NCc1ccc(Cl)c(Cl)c1)c1cc(CNC2CCNCC2)ccc1O | 859
77 | COc1ccc2nccc([C@@H](O)CN3CCC(NC(=O)c4cccc(-c5cc(C)no5)c4)CC3)c2c1 | 345
78 | O=C(NCc1cccc(C(F)(F)F)c1)C1CCCN(C(=O)c2ccc(O)c(-c3ccc(Cl)c(Cl)c3)c2)C1 (configuration not stated) | 804
79 | Cc1ccc(Nc2nccc(Nc3ccc4c(c3)nc(Nc3cc(C(C)(C)C)on3)n4C)n2)cc1S(C)(=O)=O | 599
80 | Cc1cc(C)cc(OCC(O)CN(CCN2CCOCC2)C(=O)Nc2ccc(Br)cc2)c1 (configuration not stated) | 1030
81 | Cc1ccc2c(Cl)c(C(=O)N3CC(C)OC(C)C3)sc2c1 (configuration not stated) | 176
82 | CCCC1(NC[C@@H](O)[C@H](Cc2ccccc2)NC(=O)c2cc(NCC)cc(N3CCCCS3(=O)=O)c2)CCCC1 | 505
83 | O=C(NC1CC1)c1ccc(N2CCOc3ccc(Cl)cc32)s1 | 803
84 | Cc1cnc(C(=O)Nc2cccc(-c3csc(-c4nc5ccccc5[nH]4)c3)c2)cn1 | 275
85 | Cc1ccc2[nH]c(-c3ccccc3Nc3ccnc4cc(-c5nccs5)ccc34)nc2c1 | 190
86 | CCCC1(NC[C@@H](O)[C@H](Cc2ccccc2)NC(=O)c2cc(NCC)cc(N3CCCCS3(=O)=O)c2)CC1 | 1080
87 | O=C(Nc1ccc(Cl)cc1F)N[C@H]1CCN(CCCCCNC(=O)C2CC2c2ccc(Cl)c(Cl)c2)C1 (some centres not stated) | 1090
88 | COc1ccc(Nc2ncc(OC)c(Nc3ccccc3C(N)=O)n2)cc1N1CCN(C)CC1 | 740
89 | Cc1[nH]c(C)c(-c2ccc(OCc3cc(C(F)(F)F)cc(C(F)(F)F)c3)nc2)c(=O)c1Br | 152
90 | Cc1cc(CN2CCCC(OC(c3ccc(F)cc3)c3ccc(F)cc3)C2)ccc1O (configuration not stated) | 883
91 | O=C(N/C=N/c1cc([N+](=O)[O-])c(-c2cccnc2)n1-c1ccc(O)cc1)c1ccccc1 | 299
92 | O=C(/C=C/c1ccc([N+](=O)[O-])cc1)N1CCC(NS(=O)(=O)c2cccc(C(F)(F)F)c2)CC1 | 847
93 | Cn1nc2ccc3ccccc3c2nc1=N | 773
94 | CCCCNS(=O)(=O)c1ccc(NC(=O)c2cc([N+](=O)[O-])ccc2Cl)cc1 | 902
95 | CN(CCCNc1ccc(C(=O)Nc2ccc(C(F)(F)F)cc2)cc1[N+](=O)[O-])Cc1ccccc1 | 229
96 | Cc1cccc(C(=O)Nc2ccnc(N3CCC(N(C)Cc4cccc(C#N)c4)CC3)c2)c1 | 1100
97 | COc1ccccc1-n1c(SCC(=O)Nc2ccccc2F)nc2cccnc21 | 417
